Laboratory results reported in patent publication USRE36385E, “Glucopyranose derivatives” (Ono Pharmaceutical Co., Ltd., priority 1985, dated 1999).
Like-named read-outs stand apart in the source and are kept apart here.

What was measured:
[1] = test system: Mice L-M cells; assay: Inducing activities of TNF in vitro (cytotoxicity of serum from treated mice); type: cell-based, mice (ICR male mice serum; mice L-M cells); conditions: Mus musculus, iv; 10 μg via tail vein, serum 90 mins after; L-M cells 48 hrs; read-out: Cytotoxicities
Protocol: (2) Inducing activities of TNF in vitro
Inducing activity of TNF in vitro was measured by the following test system.
Corye parvum (manufactured by Ribi Immuno Chem. Research Inc.) was administered in ICR male mice 6-weeks old through the tail vein as priming agent. Ten days later, the compounds of the present invention (10 μg) were administered through tail vein as eliciting agent. 90 mins after the administration, blood was collected from the hearts, and blood serums were separated.
Mice L-M cells (10^4 /100 μl/well) suspended in a mixture of the diluted serum solution (100 μl/well) and RPMI 1640 cultivating solution (10% FEBS and 0.2% glucose; manufactured by Nissui Pharmaceutical Co.) were cultivated in an atmosphere of a mixed gas of 5% CO2 -[…], for 48 hrs at 37° C., after adding ^3 H-tymidine taken (0.5 μCi/20 μl/well). Amounts of ^3 H-tymidine taken into cells during the cultivation were measured.
Inducing activities of TNF were measured by cytotoxicity calculated as follows: [formula]

[2] = test system: lympha cells; assay: Mitogenic activity in vitro (Blastogenic index); type: cell-based, C3H/He male mice; conditions: Mus musculus, Lymphocyte
Protocol: (1) Mitogenic activity in vitro
Mitogenic activity means activity of activating mitogenic cell division, and in this test system, the amount of tymidine taken into lympha cells was measured and a ratio determined against a blank control call (Blastogenic index) was calculated.
For example, adding the compound prepared in example 1(c) to the test system induced 30 times the amount of tymidine taken into the lympha cells versus the control.
The amounts were measured by density of a radiolabel.
Mytogenic activity in vitro was measured by the following method (See Procedure Method of Immunoexperiment pp 315 published by Japan Immunology Society).
C3H/He male mice 6 weeks old were killed by bloodletting, and their spleens were isolated and homogenized. Homogenizing liquids were filtered with gauze, and suspending cells were prepared with PBS solution. After washing, lymphacytes fractions were gathered with lympholight M. Lymphacytes were suspended in RPMI 1640 cultivation solution (10% FEBS), and the solution was divided into 5×10^5 cells/180 μl/wells. Ten times concentration of the terminal concentration (1 μg/ml) of the compounds of the present invention were added with 20 μl portions to each of the wells.
After cultivation, ^3 H-tymidine 0.5 μCi/20 μl was added to the each cells. Cultivation was continued at 37° C. for another 24 hrs, and amounts of ^3 H-tymidine taken into the cells were measured. Mitogenic activities were calculated as by Blastogenic index in as follows. [formula]

[3] = Acute toxicity (LD50), intravenous in mice; conditions: mouse, in vivo
Protocol: For example, the values of LD50 of the compound prepared in example 1(c) was more than 300 mg/kg animal body weight by intravenous administration in mice.

[4] = test system: Meth-A sarcoma; assay: Anti-tumor effect on Balb/C mice inoculated with Meth-A Sarcoma; type: in vivo, female Balb/C mice; conditions: for Apperarent tumor weight: g ± standard error; for Survival period: iv tail vein Day 7, 9, 12, day ± standard error
Protocol: (1) Anti-tumor effect on Balb/C mice inocudlated with Meth-A Sarcoma
Anti-tumor effect was measured by the following procedure.
Tumor cells which had been maintained in ascites of Balb/C mouse generation after generation was used. One group is consisting of eight female Balb/C mice. Meth-A sarcoma tumor (1×10^5 cells/0.05 ml) was inoculated into left side of female mice of 7-week old (body weight: 18-20 g). Seven day after, when tumor size came to 6~9 mm, test compound was administered into tail vein first (day 7) and then administered two times (total three times: Day 7, 9, 12). Dose of test compound is 3 and 10 mg/kg or 3, 10 and 30 mg/kg and each test compound solution volume was 10 ml/kg. Anti-tumor effect is estimated by survival period (from inoculation day to death day) and tumor apparent weight. [formula] Test results about survival period and tumor appearent weight are shown in the following Tables II(1) and II(2), respectively.
In experiments, statistic analysis was done with unpaired Student's t(two tailed)-test. […] P values lower than 0.05 were judged to be significant.

[5] = terminal concentration 1 μg/ml, ratio of 3H-tymidine uptake vs blank control, read-out: Blastgenic Index

| SMILES | cytotoxicity at 0.01 mg [1] [%] | fold induction at 1 µg/mL ([2]; compound added to the test system, 1 μg/ml, read-out: amount of tymidine taken into the lympha cells versus the control) | fold induction at 1 µg/mL [2, 5] | LD50 [3] [mg/kg] | Apperarent tumor weight ([4]; 3 mg/kg iv, Day 7) [g] | Apperarent tumor weight ([4]; 3 mg/kg iv, Day 10) [g] | Apperarent tumor weight ([4]; 3 mg/kg iv, Day 13) [g] | Apperarent tumor weight ([4]; 3 mg/kg iv, Day 16) [g] | Apperarent tumor weight ([4]; 10 mg/kg iv, Day 7) [g] | Apperarent tumor weight ([4]; 10 mg/kg iv, Day 10) [g] | Apperarent tumor weight ([4]; 10 mg/kg iv, Day 13) [g] | Apperarent tumor weight ([4]; 10 mg/kg iv, Day 16) [g] | effect on prolongation of life ([4]; at the dose of 10 mg/kg) | effect on tumore regression ([4]; at the dose of 10 mg/kg) | Survival period ([4]; dose 3 (mg/kg)) [days] | Survival period ([4]; dose 10 (mg/kg)) [days] | effect on prolongation of life ([4]; at the dose of 3 mg/kg) | effect on tumore regression ([4]; at the dose of 3 mg/kg) |
| --- | --- | --- | --- | --- | --- | --- | --- | --- | --- | --- | --- | --- | --- | --- | --- | --- | --- | --- |
| CCCCCCCCCCC[C@@H](CC(=O)N[C@H]1C(O)O[C@H](CO)[C@@H](OS(=O)(=O)O)[C@@H]1OC(=O)CCCCCCCCc1ccccc1)OC(=O)CCCCCCCCc1ccccc1 (stereo partly drawn) [1(c), 2-deoxy-2-[3S-(9-phenylnonanoyloxy)tetradecanoyl]amino-3-O-(9-phenylnonanoyl)-4-O-sulfo-D-glucopyranose] | 86 | 30 | 30 | > 300 | 0.200 ± 0.074 | 0.240 ± 0.118 | 0.314 ± 0.206 | 0.580 ± 0.412 | 0.199 ± 0.044 | 0.156 ± 0.084 | 0.120 ± 0.099 | 0.208 ± 0.253 | significant effect | significant effect | 46.8 ± 6.3 | 62.8 ± 18.8 | – | – |
| CCCCCCCCCCCCCC(=O)O[C@H]1[C@H](OS(=O)(=O)O)[C@@H](CO)OC(O)[C@@H]1NC(=O)c1ccc(OCCCCCCCCCC)c(OCCCCCCCCCC)c1 (stereo partly drawn) [Example 4, 2-deoxy-2-(3,4-didecyloxybenzoyl)amino-3-O-tetradecanoyl-4-O-sulfo-D-glycopyranose] | 20 | – | 27.7 | – | 0.212 ± 0.042 | 0.469 ± 0.169 | 0.650 ± 0.162 | 1.004 ± 0.434 | 0.205 ± 0.022 | 0.361 ± 0.056 | 0.455 ± 0.116 | 0.846 ± 0.233 | – | – | 48.5 ± 8.7 | 46.6 ± 7.2 | significant effect | significant effect |
